Experimental data published in article PMC3087488 (Journal of Oncology, 2011).
pIC50: −log10 of the molar value.

Assays:
[1] = test system: cytochrome P 450 3A; details: cited from earlier work
[2] = test system: VEGFR1; design: method as in PMID 16951187; details: cited from earlier work
[3] = test system: human umbilical vein endothelial cell (HUVEC) proliferation; design: method as in PMID 16951187; details: cited from earlier work
[4] = test system: PDGFR; design: method as in PMID 16951187; details: cited from earlier work
[5] = motesanib plasma pharmacokinetics in patients; format: in vivo, human
Method: Plasma motesanib and gemcitabine concentrations were analyzed using a validated liquid chromatography/tandem mass spectrometry (LC-MS/MS) method, respectively. […] All pharmacokinetic parameter estimates were calculated using standard noncompartmental methods and WinNonlin Professional software on […] (Version 5.1.1, Pharsight Corporation, Mountain View, Calif, USA).

Which route of metabolism [1] does the source give for `CC1(C)CNc2cc(NC(=O)c3cccnc3NCc3ccncc3)ccc21` [motesanib] here?
Its route of metabolism is “primarily metabolized by glucuronidation and cytochrome P 450 3A-mediated oxidation”.

What about the “90% inhibitory concentration (IC90) for HUVEC proliferation” value [3] of the same compound?
The value was 0.028 µg/mL.

And the “IC50 for HUVEC proliferation” value [3]?
The value was 0.004 µg/mL.

And the pIC50 [4]?
Its pIC50 is 7.08.

What about the concentration at 24 h ([5]; human, in vivo, mean daily motesanib C 24 (above IC50 for HUVEC proliferation)) of the same compound?
Its concentration at 24 h is over 4 ng/mL.

What about the concentration at 24 h ([5]; human, in vivo, mean daily motesanib C 24 (higher than IC90 for HUVEC proliferation)) of the same compound?
The concentration at 24 h was over 28 ng/mL.

What about the half-life ([5]; human, in vivo, mean estimated terminal elimination half-life (t 1/2,z)) of the same compound?
Its half-life is 5.21 to 6.72 h.

And the Tmax ([5]; human, in vivo, po)?
Its Tmax is about 1 h.

And the “C max, mean (SD)” value ([5]; motesanib 75 mg QD (n = 3 − 6), single dose, + panitumumab, gemcitabine/cisplatin)?
The value was 186 (92) ng/mL.
